Assays:
LNCaP cell line [1] = conditions: Domingo-Domenech et al., Clin. Cancer Res. 2006; cited from earlier work
PC-3 cell line = conditions: Domingo-Domenech et al., Clin. Cancer Res. 2006; cited from earlier work
LNCaP cell line [2] = experiment: Docetaxel IC50 in LNCaP from published literature; format: cell-based, human; conditions: ratio of literature docetaxel IC50 in LNCaP to IC50 in PC-3
Experimental: In addition, the IC50 values of docetaxel in the LNCaP and PC-3 cell lines were obtained from published literature. The ratios of IC50 values of sodium trans-[tetrachlorobis(1H-indazole)ruthenate(III)] in a cell line sensitive to one of the other drugs and a cell line insensitive to the same drug were calculated. The results are shown in Table 1 below (“Test Drug” in the table denotes sodium trans-[tetrachlorobis(1H-indazole)ruthenate(III)]). […] See Domingo-Domenech et al., Clin. Cancer Res., 12(18):5578-5586 (2006); Blagosklonny et al., J. Urol. 163(3):1022-6 (2000). As such, sodium trans-[tetrachlorobis(1H-indazole)ruthenate(III)] is potentially effective in treating prostate cancer resistant to such other drugs.

[3] = tested on: LNCaP clone FGC (prostate carcinoma)
Experimental: (§1) To test the activities of sodium trans-[tetrachlorobis(1H-indazole)ruthenate(III)], ATCC's MTT Cell Proliferation Assay® was performed using human prostate cancer cell lines LNCaP clone FGC (prostate carcinoma) and PC-3 (Prostate carcinoma). Stock cultures were allowed to grow to 70-80% confluence for this study. The anti-proliferative activity of sodium trans-[tetrachlorobis(1H-indazole)[…]], against the indicated cell lines was evaluated in vitro using the ATCC's MTT Cell Proliferation Assay (Catalog No. 30-1010K). LNCaP clone FGC plates were seeded with 4,000 cells/well, and the cells were grown in RPMI 1640 medium containing 1% HEPES (1M solution), 1% sodium pyruvate, 1% glucose (45% solution), 10% heat-inactivated FBS and 1% penicillin/strep/glutamine. PC-3 plates were seeded with 6,000 cells/well, and the cells were grown in Ham's F12 medium containing 10% heat-inactivated FBS, and 1% penicillin/strep/glutamine. Cultures were maintained in a 37° C. humidified 5% CO2/95% air atmosphere. The cells were treated with sodium trans-[tetrachlorobis(1H-indazole)ruthenate(III)] at 1,000 μM, or a series of 4× dilutions thereof (250 μM, 62.5 μM, etc.). 100 μl of medium was removed from each well at 72 hours post-treatment and 10 μl MTT reagent was added to each well. […] The plates were left overnight at room temperature in the dark and was read on a plate reader using SoftMax® Pro (version 5.2, Molecular Devices).
(§2) The absorbance data was analyzed as follows: Absorbance values were converted to Percent of Control and plotted against test agent concentrations for IC50 calculations using SoftMax® Pro (version 5.2, Molecular Devices). […] Percent of Control values were calculated by dividing the absorbance values for each test well by the No Drug Control average (column 11 values; cells+vehicle control) and multiplying by 100. Plots of Compound Concentration versus Percent of Control were analyzed using the 4-parameter equation to obtain IC50 values and other parameters that describe the sigmoidal dose response curve. […]

[4] = tested on: PC-3 (Prostate carcinoma); conditions: PC-3 cell line, MTT, 72 hours post-treatment
Experimental: as §1, §2

IC50 Ratio (LNCaP/PC-3) (LNCaP cell line [2])	Compound	IC50 (LNCaP cell line [1])	IC50 (PC-3 cell line)	IC50 ([3]; LNCaP cell line, MTT, 72 hours post-treatment)	IC50 Ratio (LNCaP/PC-3) ([3]; ratio of Test Drug IC50 in LNCaP to IC50 in PC-3)	IC50 [4]
12-20	CC(=O)O[C@@]12CO[C@@H]1C[C@H](O)[C@@]1(C)C(=O)[C@H](O)C3=C(C)[C@@H](OC(=O)[C@H](O)[C@@H](NC(=O)OC(C)(C)C)c4ccccc4)C[C@@](O)([C@@H](OC(=O)c4ccccc4)[C@H]21)C3(C)C [Docetaxel, docetaxel]	0.05 to 0.06 µM	0.0025 to 0.005 µM			
	[Cl][Ru-]([Cl])([Cl])[Cl].[Na+].c1ccc2[nH]ncc2c1.c1ccc2[nH]ncc2c1 [sodium trans-[tetrachlorobis(1H-indazole)ruthenate(III)]]			17.3 µM	0.41	41.8 µM

Reference: US20130090320A1, “METHOD OF TREATING PROSTATE CANCER” (NIIKI PHARMA INC., priority 2010, published 2013)
